Laboratory results: US20240245673A1, “Papain-like protease (PLpro) inhibitors” (Pfizer Inc., priority 2022, published 2024)

Biological target: SARS-CoV-2 Papain like protease (PLpro) (Severe acute respiratory syndrome coronavirus 2 (2019-nCoV) (SARS-CoV-2), UniProt P0DTD1)
Test: Papain Like Protease (PLpro) biochemical assay with profluorogenic substrate Z-RLRGG-AMC
Settings: SARS-CoV-2 PLpro 6.25 nM, 25 μM Z-RLRGG-AMC substrate, 60 minute reaction; read-out: IC50

| SMILES | IC50 [nM] |
| --- | --- |
| Cc1cc(C(C)OCc2nccn2C)ncc1C(=O)N[C@H](C)c1cc(-c2cnn(C)c2)nc2ccccc12 (stereo partly drawn) [Example 322, 4-methyl-6-(1-((1-methyl-1H-imidazol-2-yl)methoxy)ethyl)-N-((R)-1-(2-(1-methyl-1H-pyrazol-4-yl)quinolin-4-yl)ethyl)nicotinamide] | 7 |
| Cc1cc(COCc2cscn2)ccc1C(=O)NC1(c2cc(-c3cnn(C)c3)nc3ccccc23)CC1 [Example 323, 2-methyl-N-(1-(2-(1-methyl-1H-pyrazol-4-yl)quinolin-4-yl)cyclopropyl)-4-((thiazol-4-ylmethoxy)methyl)benzamide] | < 1 |
| Cc1cc(COCc2cscn2)ccc1C(=O)NC1(c2cc(-c3cnn(CCS(C)(=O)=O)c3)nc3ccccc23)CC1 [Example 328, 2-methyl-N-(1-(2-(1-(2-(methylsulfonyl)ethyl)-1H-pyrazol-4-yl)quinolin-4-yl)cyclopropyl)-4-((thiazol-4-ylmethoxy)methyl)benzamide] | < 1 |
| Cc1cc(COCc2cscn2)ccc1C(=O)NC1(c2cc(-c3cc(C(=O)N(C)CCN(C)C)n[nH]3)nc3ccccc23)CC1 [Example 329, N-(2-(dimethylamino)ethyl)-N-methyl-5-(4-(1-(2-methyl-4-((thiazol-4-ylmethoxy)methyl)benzamido)cyclopropyl)quinolin-2-yl)-1H-pyrazole-3-carboxamide] | < 1 |
| Cc1cc(COCc2ncsc2CO)ccc1C(=O)NC1(c2cc(-c3cnn(C)c3)nc3ccccc23)CC1 [Example 330, 4-(((5-(hydroxymethyl)thiazol-4-yl)methoxy)methyl)-2-methyl-N-(1-(2-(1-methyl-1H-pyrazol-4-yl)quinolin-4-yl)cyclopropyl)benzamide] | < 1 |
| Cc1cc(COCc2cscn2)ccc1C(=O)NC1(c2cc(-c3cnn(CS(C)(=O)=O)c3)nc3ccccc23)CC1 [Example 341, 2-methyl-N-(1-(2-(1-((methylsulfonyl)methyl)-1H-pyrazol-4-yl)quinolin-4-yl)cyclopropyl)-4-((thiazol-4-ylmethoxy)methyl)benzamide] | < 1 |
| Cc1cc(COCc2cscn2)ccc1C(=O)NC1(c2cc(-c3cnn(CC(=O)N(C)C)c3)nc3ccccc23)CC1 [Example 342, N-(1-(2-(1-(2-(dimethylamino)-2-oxoethyl)-1H-pyrazol-4-yl)quinolin-4-yl)cyclopropyl)-2-methyl-4-((thiazol-4-ylmethoxy)methyl)benzamide] | < 1 |
| Cc1cc(COCc2cscn2)ccc1C(=O)NC1(c2cc(-c3cc(C(=O)N(C)C)n[nH]3)nc3ccccc23)CC1 [Example 343, N,N-dimethyl-5-(4-(1-(2-methyl-4-((thiazol-4-ylmethoxy)methyl)benzamido)cyclopropyl)quinolin-2-yl)-1H-pyrazole-3-carboxamide] | < 1 |
| Cc1cc(COCc2cocn2)ccc1C(=O)NC1(c2cc(-c3cnn(C)c3)nc3ccccc23)CC1 [Example 344, 2-methyl-N-(1-(2-(1-methyl-1H-pyrazol-4-yl)quinolin-4-yl)cyclopropyl)-4-((oxazol-4-ylmethoxy)methyl)benzamide] | < 1 |
| Cc1cc(COCc2cocn2)ccc1C(=O)NC1(c2cc(-c3cnn(C)c3)cc3ncccc23)CC1 [Example 345, 2-methyl-N-(1-(7-(1-methyl-1H-pyrazol-4-yl)quinolin-5-yl)cyclopropyl)-4-((oxazol-4-ylmethoxy)methyl)benzamide] | < 1 |
| Cc1cc(COCc2cocn2)ccc1C(=O)NC1(c2cc(-c3cc(C(=O)N(C)C)n[nH]3)nc3ccccc23)CC1 [Example 346, N,N-dimethyl-5-(4-(1-(2-methyl-4-((oxazol-4-ylmethoxy)methyl)benzamido)cyclopropyl)quinolin-2-yl)-1H-pyrazole-3-carboxamide] | < 1 |
| CNC(=O)c1cc(-c2cc(C3(NC(=O)c4ccc(COCc5cscn5)cc4C)CC3)c3ccccc3n2)[nH]n1 [Example 347, N-methyl-5-(4-(1-(2-methyl-4-((thiazol-4-ylmethoxy)methyl)benzamido)cyclopropyl)quinolin-2-yl)-1H-pyrazole-3-carboxamide] | < 1 |
| Cc1ccc2c(C3(NC(=O)c4ccc(COCc5cocn5)cc4C)CC3)cc(-c3cnn(C)c3)cc2n1 [Example 348, 2-methyl-N-(1-(2-methyl-7-(1-methyl-1H-pyrazol-4-yl)quinolin-5-yl)cyclopropyl)-4-((oxazol-4-ylmethoxy)methyl)benzamide] | < 1 |
| Cc1cc(COCc2cscn2)ccc1C(=O)NC1(c2cc(-c3cc(C(N)=O)n[nH]3)nc3ccccc23)CC1 [Example 349, 5-(4-(1-(2-methyl-4-((thiazol-4-ylmethoxy)methyl)benzamido)cyclopropyl)quinolin-2-yl)-1H-pyrazole-3-carboxamide] | < 1 |
| Cc1cc(COCc2cocn2)ccc1C(=O)NC1(c2cc(-c3cc(C(=O)N(C)C)n[nH]3)cc3ncccc23)CC1 [Example 350, N,N-dimethyl-5-(5-(1-(2-methyl-4-((oxazol-4-ylmethoxy)methyl)benzamido)cyclopropyl)quinolin-7-yl)-1H-pyrazole-3-carboxamide] | < 1 |
| Cc1cc(COCc2cscn2)ccc1C(=O)NC1(c2cc(-c3cc(C(=O)N(C)C)n[nH]3)cc3ncccc23)CC1 [Example 351, N,N-dimethyl-5-(5-(1-(2-methyl-4-((thiazol-4-ylmethoxy)methyl)benzamido)cyclopropyl)quinolin-7-yl)-1H-pyrazole-3-carboxamide] | < 1 |
| Cc1cc(COCc2cscn2)ccc1C(=O)NC1(c2cc(-c3cnn(CC(N)=O)c3)nc3ccccc23)CC1 [Example 352, N-(1-(2-(1-(2-amino-2-oxoethyl)-1H-pyrazol-4-yl)quinolin-4-yl)cyclopropyl)-2-methyl-4-((thiazol-4-ylmethoxy)methyl)benzamide] | < 1 |
| COCC(OCc1cscn1)c1ccc(C(=O)NC2(c3cc(-c4cnn(C)c4)cc4nc(C)ccc34)CC2)c(C)c1 (stereo not shown) [Example 353, 4-(2-methoxy-1-(thiazol-4-ylmethoxy)ethyl)-2-methyl-N-(1-(2-methyl-7-(1-methyl-1H-pyrazol-4-yl)quinolin-5-yl)cyclopropyl)benzamide] | < 1 |
| Cc1cc(COCc2cscn2)ccc1C(=O)NC1(c2cc(-c3cnn(C)c3)cc3nc(C(C)(C)O)ccc23)CC1 [Example 354, N-(1-(2-(2-hydroxypropan-2-yl)-7-(1-methyl-1H-pyrazol-4-yl)quinolin-5-yl)cyclopropyl)-2-methyl-4-((thiazol-4-ylmethoxy)methyl)benzamide] | < 1 |
| Cc1cc(COCc2cscn2)ccc1C(=O)NC1(c2cc(-c3cc(C(=O)N(C)CC(C)(C)O)n[nH]3)nc3ccccc23)CC1 [Example 357, N-(2-hydroxy-2-methylpropyl)-N-methyl-5-(4-(1-(2-methyl-4-((thiazol-4-ylmethoxy)methyl)benzamido)cyclopropyl)quinolin-2-yl)-1H-pyrazole-3-carboxamide] | < 1 |
| Cc1cc(COCc2cscn2)ccc1C(=O)NC1(c2cc(-c3cnn(C)c3)cc3nc(O)ccc23)CC1 [Example 358, N-(1-(2-hydroxy-7-(1-methyl-1H-pyrazol-4-yl)quinolin-5-yl)cyclopropyl)-2-methyl-4-((thiazol-4-ylmethoxy)methyl)benzamide] | < 1 |
| Cc1cc(COCc2cscn2)ccc1C(=O)NC1(c2cc(-c3cnn(CCC(=O)N(C)C)c3)nc3ccccc23)CC1 [Example 362] | < 1 |
| Cc1cc(COCc2cscn2)ccc1C(=O)NC1(c2cc(-c3cnn(C(C)(C)C(=O)N(C)C)c3)nc3ccccc23)CC1 [Example 363] | < 1 |
| CCN(C)C(=O)Cn1cc(-c2cc(C3(NC(=O)c4ccc(COCc5cscn5)cc4C)CC3)c3ccccc3n2)cn1 [Example 364] | < 1 |
| Cc1cc(COCc2ccccn2)ccc1C(=O)NC1(c2cc(-c3cnn(CC(=O)N(C)C)c3)nc3ccccc23)CC1 [Example 366, N-(1-(2-(1-(2-(dimethylamino)-2-oxoethyl)-1H-pyrazol-4-yl)quinolin-4-yl)cyclopropyl)-2-methyl-4-((pyridin-2-ylmethoxy)methyl)benzamide] | < 1 |
